The test system of one assay is Aβ42 production. Briefly: Inhibition of Aβ42 production in H4 neuroglioma cells stably expressing human APP695 (MSD electrochemiluminescence). It counts as cell-based.
The target in a further assay is KDR (VEGFR2) (Homo sapiens, UniProt P35968). Briefly: Z'-LYTE SelectScreen biochemical kinase assay KDR (VEGFR2). The text has this: (§1) Thermo Fisher Scientific SelectScreen™ Biochemical Kinase Profiling Service Z′-LYTE™ Screening Protocol and Assay Conditions Assay Theory
Sequence of KDR (VEGFR2) (P35968 20-1356): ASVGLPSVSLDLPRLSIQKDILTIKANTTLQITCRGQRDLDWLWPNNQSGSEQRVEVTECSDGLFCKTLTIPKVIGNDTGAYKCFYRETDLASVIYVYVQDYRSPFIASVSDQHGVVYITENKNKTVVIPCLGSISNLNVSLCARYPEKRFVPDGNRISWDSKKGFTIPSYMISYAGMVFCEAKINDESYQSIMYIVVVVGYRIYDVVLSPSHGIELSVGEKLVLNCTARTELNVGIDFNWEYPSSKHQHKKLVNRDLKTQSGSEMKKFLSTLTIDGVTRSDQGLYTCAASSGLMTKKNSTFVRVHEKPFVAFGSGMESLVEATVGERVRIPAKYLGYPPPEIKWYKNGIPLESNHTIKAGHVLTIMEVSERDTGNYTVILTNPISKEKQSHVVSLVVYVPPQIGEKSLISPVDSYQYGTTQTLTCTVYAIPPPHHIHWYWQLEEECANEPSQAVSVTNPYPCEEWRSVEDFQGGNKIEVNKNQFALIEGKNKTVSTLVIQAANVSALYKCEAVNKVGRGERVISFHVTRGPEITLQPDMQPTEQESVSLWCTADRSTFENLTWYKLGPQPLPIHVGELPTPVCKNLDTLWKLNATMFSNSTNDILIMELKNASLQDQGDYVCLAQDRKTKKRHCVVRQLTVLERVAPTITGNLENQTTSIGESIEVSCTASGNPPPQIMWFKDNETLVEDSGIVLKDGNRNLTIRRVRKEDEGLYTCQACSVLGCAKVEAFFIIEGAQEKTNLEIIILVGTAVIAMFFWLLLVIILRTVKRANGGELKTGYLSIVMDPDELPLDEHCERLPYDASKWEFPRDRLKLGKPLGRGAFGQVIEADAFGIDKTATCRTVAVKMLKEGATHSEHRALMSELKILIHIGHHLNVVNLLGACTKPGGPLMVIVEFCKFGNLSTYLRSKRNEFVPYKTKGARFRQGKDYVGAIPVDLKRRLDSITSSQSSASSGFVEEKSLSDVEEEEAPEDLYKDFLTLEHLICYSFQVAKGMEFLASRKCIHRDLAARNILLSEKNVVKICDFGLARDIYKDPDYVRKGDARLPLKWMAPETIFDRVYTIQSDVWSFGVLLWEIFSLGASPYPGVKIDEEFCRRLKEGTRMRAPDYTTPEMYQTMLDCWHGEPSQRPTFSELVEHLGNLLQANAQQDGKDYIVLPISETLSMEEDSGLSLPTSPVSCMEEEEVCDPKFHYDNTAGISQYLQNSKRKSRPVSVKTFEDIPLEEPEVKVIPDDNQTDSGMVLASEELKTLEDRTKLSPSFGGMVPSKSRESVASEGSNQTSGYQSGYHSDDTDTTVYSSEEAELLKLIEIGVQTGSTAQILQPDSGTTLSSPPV
(§2) The […] biochemical assay employs a fluorescence-based, coupled-enzyme format and is based on the differential sensitivity of phosphorylated and non-phosphorylated peptides to proteolytic cleavage. The peptide substrate is labeled with two fluorophores—one at each end—that make up a FRET pair. In the primary reaction, the kinase transfers the gamma-phosphate of ATP to a single tyrosine, serine or threonine residue in a synthetic FRET-peptide. In the secondary reaction, a site-specific protease recognizes and cleaves non-phosphorylated FRET-peptides. Phosphorylation of FRET-peptides suppresses cleavage by the Development Reagent. Cleavage disrupts FRET between the donor (i.e., coumarin) and acceptor (i.e., fluorescein) fluorophores on the FRET-peptide, whereas uncleaved, phosphorylated FRET-peptides maintain FRET. A ratiometric method, which calculates the ratio (Emission Ratio=Coumarin emission (445 nm)/Fluorescein emission (520 nm)) of donor emission to acceptor emission after excitation of the donor fluorophore at 400 nm, is used to quantitate reaction progress, as shown in the equation below. A significant benefit of this ratiometric method for quantitating reaction progress is the elimination of well-to-well variations in FRET-peptide concentration and signal intensities. As a result, the assay yields very high Z′-factor values (>0.7) at a low percent phosphorylation. Both cleaved and uncleaved FRET-peptides contribute to the fluorescence signals and therefore to the Emission Ratio. The extent of phosphorylation of the FRET-peptide can be calculated from the Emission Ratio. The Emission Ratio will remain low if the FRET-peptide is phosphorylated (i.e., no kinase inhibition) and will be high if the FRET-peptide is non-phosphorylated (i.e., kinase inhibition).
(§3) The Test Compounds are screened in 1% DMSO (final) in the well. For 10 point titrations, 3-fold serial dilutions are conducted from the starting concentration of the customer's choosing.
(§4) All Peptide/Kinase Mixtures are diluted to a 2× working concentration in the appropriate Kinase Buffer (see section Kinase Specific Assay Conditions for a complete description).
(§5) All ATP Solutions are diluted to a 4× working concentration in Kinase Buffer (50 mM HEPES pH 7.5, 0.01% BRIJ-35, 10 mM MgCl2, 1 mM EGTA). ATP Km apparent is previously determined using a Z″-LYTE assay.
(§6) The Development Reagent is diluted in Development Buffer (see section Kinase-Specific Assay Conditions—Direct and Cascade for a complete description).
(§7) Bar-coded Corning, low volume NBS, black 384-well plate (Corning Cat. #4514) • 1. 100 nL—100× Test Compound in 100% DMSO • 2. 2.4 μL—Kinase buffer • 3. 5 μL—2× Peptide/Kinase Mixture • 4. 2.5 μL—4×ATP Solution • 5. 30—second plate shake • 6. 60—minute Kinase Reaction incubation at room temperature • 7. 5 μL—Development Reagent Solution • 8. 30—second plate shake • 9. 60—minute Development Reaction incubation at room temperature • 10. Read on fluorescence plate reader and analyze the data Z′-LYTE Assay Controls
(§8) SelectScreen Kinase Profiling Service uses XLfit from IDBS. The dose response curve is curve fit to model number 205 (sigmoidal dose-response model).
The 2×KDR (VEGFR2)/Tyr 01 mixture is prepared in 50 mM HEPES pH 7.5, 0.01% BRIJ-35, 10 mM MgCl2, 1 mM EGTA. The final 10 μL Kinase Reaction consists of 1-30 ng KDR (VEGFR2) and 2 μM Tyr 01 in 50 mM HEPES pH 7.5, 0.01% BRIJ-35, 10 mM MgCl2, 1 mM EGTA. After the 1 hour Kinase Reaction incubation, 5 μL of a 1:256 dilution of Development Reagent B is added.

In a further assay the test system is Aβ total. Briefly: Aβ total levels in H4 neuroglioma cells stably expressing human APP695 (MSD electrochemiluminescence). It is filed as cell-based. The note with it: selectivity ratio vs. Aβtotal. Summed up:
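H4 cells expressing human APP695, plated near confluency, exposed 22 h at 37 °C to compounds over 30 μM–0.1 nM (0.5% DMSO final). Supernatant Aβ total quantified by MSD electrochemiluminescence immunoassay.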

Another assay deals with CDK5/p35 (Homo sapiens, UniProt Q00535). Briefly: Z'-LYTE SelectScreen biochemical kinase assay CDK5/p35.
Sequence of CDK5/p35 (Q00535 whole entry): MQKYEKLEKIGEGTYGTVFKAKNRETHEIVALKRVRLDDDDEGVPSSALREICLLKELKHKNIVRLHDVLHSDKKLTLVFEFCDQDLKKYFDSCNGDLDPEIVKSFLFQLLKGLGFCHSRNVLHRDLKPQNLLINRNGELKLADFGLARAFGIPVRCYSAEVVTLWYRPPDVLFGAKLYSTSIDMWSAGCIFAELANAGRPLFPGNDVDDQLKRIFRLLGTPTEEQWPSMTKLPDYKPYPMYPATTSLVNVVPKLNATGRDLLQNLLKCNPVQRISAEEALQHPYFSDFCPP
Sequence of CDK5/p35 (Q15078 whole entry partner): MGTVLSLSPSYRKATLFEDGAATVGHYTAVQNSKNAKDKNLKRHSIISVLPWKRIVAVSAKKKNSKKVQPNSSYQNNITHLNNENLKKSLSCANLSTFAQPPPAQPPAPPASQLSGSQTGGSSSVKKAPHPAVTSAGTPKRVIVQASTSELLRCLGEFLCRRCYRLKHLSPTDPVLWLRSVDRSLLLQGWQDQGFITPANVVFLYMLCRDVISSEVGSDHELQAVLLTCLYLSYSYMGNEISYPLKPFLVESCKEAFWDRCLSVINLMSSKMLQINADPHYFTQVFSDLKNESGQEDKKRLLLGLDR
Source text: as §1, §2, §3, §4, §5, §6, §7, §8
The 2×CDK5/p35/Ser/Thr 12 mixture is prepared in 50 mM HEPES pH 7.5, 0.01% BRIJ-35, 10 mM MgCl2, 1 mM EGTA. The final 10 μL Kinase Reaction consists of 0.14-1.3 ng CDK5/p35 and 2 μM Ser/Thr 12 in 50 mM HEPES pH 7.5, 0.01% BRIJ-35, 10 mM MgCl2, 1 mM EGTA. After the 1 hour Kinase Reaction incubation, 5 μL of a 1:4096 dilution of Development Reagent A is added.

[1] abbreviates: H4 neuroglioma cells expressing human APP695, 22 hours incubation, Table 4a.
Setting [2] is: 10 μmolar compound concentration, ATP at Km app, read-out: KDR (VEGFR2) inhibition.
Setting [3] is: read-out: % Inhibition mean KDR (VEGFR2).
Setting [4] is: 10 μmolar compound concentration, ATP at Km app, read-out: CDK5/p35 inhibition.
Setting [5] is: read-out: % Inhibition mean CDK5/p35.

Where two headings read alike, the source gives them in different places. Some results are limits rather than exact numbers.

As for `CCCn1ncc2c1CCC(Nc1nc3c(-c4ccc(F)cc4C)cccn3n1)C2` (stereo not shown) [Example 43, [8-(4-fluoro-2-methyl-phenyl)-[1,2,4]triazolo[1,5-a]pyridine-2-yl]-(1-propyl-4,5,6,7-tetrahydro-1H-indazol-5-yl)-amine], the midpoint of inhibition in the assay on Aβ42 production (setting [1]), the IC50, lay at 60 nM. For the same compound, the inhibition at 10 µM is < 40% on KDR (VEGFR2) (setting [2]), -3% at KDR (VEGFR2) (setting [3]), < 40% at CDK5/p35 (setting [4]) and 36% on CDK5/p35 (setting [5]). Also, the “Ratio AβTotal IC50/Aβ42 IC50” value with Aβ total (Table 4a) is recorded as 48.
As to `CCn1nc(Cl)c2c1CCC(Nc1nc3c(-c4ccc(F)cc4C)cccn3n1)C2` (stereo not shown) [Example 48, (3-Chloro-1-ethyl-4,5,6,7-tetrahydro-1H-indazol-5-yl)-[8-(4-fluoro-2-methyl-phenyl)-[1,2,4]triazolo[1,5-a]pyridine-2-yl]-amine], inhibition in the assay on Aβ42 production (setting [1]) was half-maximal at 750 nM (IC50). Also, the inhibition at 10 µM was < 40% at KDR (VEGFR2) (setting [2]), 2% at KDR (VEGFR2) (setting [3]), < 40% on CDK5/p35 (setting [4]) and 38% on CDK5/p35 (setting [5]). In addition, in the assay on Aβ total (Table 4a), the “Ratio AβTotal IC50/Aβ42 IC50” value is 22.
On to `CCn1ncc2c1CCC(Nc1nc3c(-c4cncc(OC)c4)cccn3n1)C2` (stereo not shown) [Example 70, (1-Ethyl-4,5,6,7-tetrahydro-1H-indazol-5-yl)-[8-(5-methoxy-pyridin-3-yl)-[1,2,4]triazolo[1,5-a]pyridine-2-yl]-amine], for which, in the assay with Aβ42 production (setting [1]), it took 200 nM to reach half-maximal inhibition (IC50). The inhibition at 10 µM at KDR (VEGFR2) (setting [2]) was < 40%; at KDR (VEGFR2) (setting [3]), 12%; at CDK5/p35 (setting [4]), 40 to 80%; at CDK5/p35 (setting [5]), 58%. For the same compound, in the assay with Aβ total (Table 4a), the “Ratio AβTotal IC50/Aβ42 IC50” value amounted to 60.
Turning to `CCCCn1ncc2c1CCC(Nc1nc3c(-c4ccc(F)cc4C)cccn3n1)C2` (stereo not shown) [Example 46, [8-(4-fluoro-2-methyl-phenyl)-[1,2,4]triazolo[1,5-a]pyridine-2-yl]-(1-butyl-4,5,6,7-tetrahydro-1H-indazol-5-yl)-amine], in the assay with Aβ42 production (setting [1]), the half-maximal inhibitory concentration (IC50) (as a rule, the concentration needed to halve the response being measured) is 2770 nM. Further, the inhibition at 10 µM at KDR (VEGFR2) (setting [2]) was < 40%; at KDR (VEGFR2) (setting [3]), 3%; on CDK5/p35 (setting [4]), < 40%; at CDK5/p35 (setting [5]), 34%. Moreover, in the assay on Aβ total (Table 4a), the “Ratio AβTotal IC50/Aβ42 IC50” value was 4.
Take `CCn1ncc2c1C(C)CC(Nc1nc3c(-c4cc(F)c(F)c(F)c4)cccn3n1)C2` (stereo not shown) [Example 49, (1-Ethyl-7-methyl-4,5,6,7-tetrahydro-1H-indazol-5-yl)-[8-(3,4,5-trifluoro-phenyl)-[1,2,4]triazolo[1,5-a]pyridine-2-yl]-amine]: the IC50 with Aβ42 production (setting [1]) was 950 nM. The inhibition at 10 µM at KDR (VEGFR2) (setting [2]) is < 40%; on KDR (VEGFR2) (setting [3]), 8%; on CDK5/p35 (setting [4]), < 40%; at CDK5/p35 (setting [5]) it was 7%. The “Ratio AβTotal IC50/Aβ42 IC50” value with Aβ total (Table 4a) was found to be 15.
As to `CC1(C)NC(=O)c2ccc(Nc3nc4c(-c5cccc(F)c5)cccn4n3)cc21` [Cpd. 302 in WO09155551, reference compound], in the assay with Aβ42 production (Homo sapiens, H4 neuroglioma cells, same assay as table 4a, prior art compounds, Table 4b), the half-inhibitory concentration (IC50) is > 10000 nM. Also, the “modulation of γ-secretase (in words)” value with Aβ42 production (tables 4a/4b) was “do not show any modulation”. In addition, the inhibition at 10 µM at KDR (VEGFR2) (setting [2]) was > 80%; at KDR (VEGFR2) (read-out: % Inhibition mean) it was 101%; at CDK5/p35 (setting [4]), > 80%; at CDK5/p35 (read-out: % Inhibition mean) it was 88%. Further, the “Ratio AβTotal IC50/Aβ42 IC50” value in the assay with Aβ total (prior art compounds, Table 4b) is on record as 1.
As to `CCn1ncc2c1CCC(Nc1nc3c(-c4cccnc4OC)cccn3n1)C2` (stereo not shown) [Example 69, (1-Ethyl-4,5,6,7-tetrahydro-1H-indazol-5-yl)-[8-(2-methoxy-pyridin-3-yl)-[1,2,4]triazolo[1,5-a]pyridine-2-yl]-amine], the IC50 in the assay on Aβ42 production (setting [1]) was 500 nM. Also, the inhibition at 10 µM at KDR (VEGFR2) (setting [2]) was < 40%; at KDR (VEGFR2) (setting [3]), 8%; at CDK5/p35 (setting [4]), < 40%; at CDK5/p35 (setting [5]) it was 28%. Further, in the assay with Aβ total (Table 4a), the “Ratio AβTotal IC50/Aβ42 IC50” value amounted to 60.

For the origin of these results see US11339161B2, “Triazolo pyridines as modulators of gamma-secretase” (Boehringer Ingelheim International GmbH, priority 2017, dated 2022).
